Among the data in patent US6015900A, “N-aminoalkylfluorenecarboxamides” (Neurogen Corporation, priority 1998, dated 2000) are Ki values, retold here.

For orientation: Ki means a dissociation constant, usually derived from enzyme kinetics or from competition with a known ligand.

One experiment has as its target D3 receptors (Chlorocebus aethiops, UniProt P52703). Description: biochemical. The class given is binding, African Green monkey.
The target in another experiment is D2 receptors (Chlorocebus aethiops, UniProt P52702). Description: biochemical. The class given is binding, African Green monkey.
Sequence of D2 receptors (P52702 whole entry): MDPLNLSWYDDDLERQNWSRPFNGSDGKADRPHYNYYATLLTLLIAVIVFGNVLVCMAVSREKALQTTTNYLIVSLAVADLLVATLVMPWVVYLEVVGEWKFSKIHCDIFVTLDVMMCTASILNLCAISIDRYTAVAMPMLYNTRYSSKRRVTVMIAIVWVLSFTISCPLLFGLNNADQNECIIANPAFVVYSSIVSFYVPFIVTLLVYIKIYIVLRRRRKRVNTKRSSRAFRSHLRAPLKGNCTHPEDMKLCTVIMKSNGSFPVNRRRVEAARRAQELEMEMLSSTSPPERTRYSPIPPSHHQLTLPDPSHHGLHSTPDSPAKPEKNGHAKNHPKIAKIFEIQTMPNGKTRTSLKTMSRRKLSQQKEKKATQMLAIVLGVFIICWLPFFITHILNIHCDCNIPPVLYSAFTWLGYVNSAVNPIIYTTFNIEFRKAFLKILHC
[1] abbreviates: COS cells containing recombinant D3 receptors, 0.5 nM ^3 H-YM 09151-2, nonspecific binding with 1 mM spiperone, read-out: D3 Ki.
The mark [2] stands for this setting: COS cells containing recombinant D2 receptors, 0.5 nM ^3 H-YM 09151-2, nonspecific binding with 1 mM spiperone, read-out: D2 Ki.

Counter-ions that a name gives are not always drawn. Like-named read-outs stand apart in the source and are kept apart here.

Sequence of D3 receptors (P52703 whole entry): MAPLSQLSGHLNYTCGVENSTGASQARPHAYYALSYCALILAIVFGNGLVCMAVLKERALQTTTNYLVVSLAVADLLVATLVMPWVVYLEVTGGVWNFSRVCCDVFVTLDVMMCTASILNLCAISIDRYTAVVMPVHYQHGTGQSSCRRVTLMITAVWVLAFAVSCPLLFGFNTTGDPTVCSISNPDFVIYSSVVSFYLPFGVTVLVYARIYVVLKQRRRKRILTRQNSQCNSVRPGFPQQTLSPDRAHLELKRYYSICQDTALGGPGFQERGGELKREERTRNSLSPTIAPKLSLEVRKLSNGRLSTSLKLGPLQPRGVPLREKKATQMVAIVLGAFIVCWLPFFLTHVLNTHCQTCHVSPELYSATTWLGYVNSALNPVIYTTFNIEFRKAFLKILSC
Experimental for D2 receptors: (§1) Pellets of COS cells containing recombinantly produced D2 or D3 receptors from African Green monkey were used for the assays. The sample is homogenized in 100 volumes (w/vol) of 0.05 M Tris HCl buffer at 4° C. and pH 7.4. The sample is then centrifuged at 30,000×g and resuspended and rehomogenized. The sample is then centrifuged as described and the final tissue sample is frozen until use. The tissue is resuspended 1:20 (wt/vol) in 0.05 M Tris HCl buffer containing 100 mM NaCl.
(§2) Incubations are carried out at 48° C. and contain 0.4 ml of tissue sample, 0.5 nM ^3 H-YM 09151-2 and the compound of interest in a total incubation of 1.0 ml. Nonspecific binding is defined as that binding found in the presence of 1 mM spiperone; without further additions, nonspecific binding is less than 20% of total binding.
Experimental for D3 receptors: as §1, §2

Consider `O=C(NCCCCN1CCN(c2cccc(Cl)c2Cl)CC1)c1ccc2c(c1)Cc1ccccc1-2` [Compound 1, N-{4-[4-(2,3-dichlorophenyl)-1-piperazinyl]butyl}-9H-fluorene-2-carboxamidehydrochloride], for which the Ki was 3 nM at D3 receptors and 729 nM at D2 receptors.
Take `O=C(NCCCCN1CCN(c2cccc3ccccc23)CC1)c1ccc2c(c1)Cc1ccccc1-2` [Compound 2, N-{4-[4-(1-Naphthyl)-1-piperazinyl]butyl}-9H-fluorene-2-carboxamide hydrochloride]: the Ki at D3 receptors (setting [1]) is 1 nM; on D2 receptors (setting [2]), 150 nM.
As to `O=C(NCCCCN1CCN(c2ccccc2Cl)CC1)c1ccc2c(c1)C(=O)c1ccccc1-2` [Compound 3, N-{4-[4-(2-Chlorophenyl)-1-piperazinyl]butyl}-9-oxo-fluorene-2-arboxamide hydrochloride], the Ki on D3 receptors (setting [1]) was 0.7 nM; on D2 receptors (setting [2]), 97 nM.
